According to US20060058380A1, “Novel aminobenzophenone compounds” (priority 2002, published 2006):

Legend:
TNF-α = test: Inhibition of TNF-α secretion in LPS stimulated peripheral blood mononuclear cells; assay type: cell-based; settings: PBMC; LPS stimulated human peripheral blood mononuclear cells, 18 hours, ELISA; read-out: The median inhibition concentration (IC50, nM) TNF-α
Description: (§1) To study the effect of the compound of the present invention in vitro the inhibition of the IL-1β and TNF-α secretion was measured using the following procedure:
(§2) Cytokine production was measured in the media from lipopolysaccharide (LPS) stimulated peripheral blood mononuclear cells. The mononuclear cells were isolated from human peripheral blood by Lymphoprep® (Nycomed, Norway) fractionation and suspended in RPMI 1640 (growth medium) with foetal calf serum (FCS, 2%), at a concentration of 5×10^5 cells/ml. The cells were incubated in 24-well tissue culture plates in 1 ml aliquots. Test compounds were dissolved in dimethylsulfoxide (DMSO, 10 mM) and were diluted with the medium. Compounds were added to the cells for 30 minutes, then LPS ([…] final concentration) was added. The plates were incubated for 18 hours, and the concentration of IL-1β and TNF-α in the medium was determined by enzyme-linked immunosorbent assays. The median inhibitory concentrations (IC50) of the compounds were calculated.

IL-1β = test: Inhibition of IL-1β secretion in LPS stimulated peripheral blood mononuclear cells; assay type: cell-based; settings: PBMC; LPS stimulated human peripheral blood mononuclear cells, 18 hours, ELISA; read-out: The median inhibition concentration (IC50, nM) IL-1β
Description: as §1, §2

comedones = test: Rhino mouse model, reduction of number of comedones; assay type: in vivo; settings: topical on the back daily for 21 days, 45 mM in acetone, percentage change compared to untreated control group
Description: The rhino mouse is an in vivo model for the study of hyperplastic and comedolytic potency of compounds used in the treatment of acne. The rhino mouse has follicles on the skin, the orifices of which are distended with horny material, and these structures resembles human comedones.
The model uses mouse of the strain RHJ/LeJ Rhino, hr^rh/hr^rh. The mice are treated topically on the back daily for 21 days with the test compound. Compounds are tested for their ability to reduce the number of comedones.
The number of comedones in the skin of the mouse is determined by histological examination. The percentage change in the number of comedones compared to an untreated control group is calculated. The compounds were applied at 45 mM dissolved in acetone.

[1] = Discolouring of compounds on filter paper before and after sun-test illumination; assay type: physicochemical; parameters: key: 0: No colour; 1: Very faint colour; 2: Light colour; 3: Medium colour; 4: Strong colour; settings: for Colour score prior to illumination: 10 mM in Ethanol:Labrasol:water 65:25:10, 10 ul spot on filter paper dried 15 minutes; for Colour score after illumination: spots illuminated in sun-test cabinet (Heraeus Suntest CPS), outdoor illumination, 5 minutes
Description: The discolouring of compounds of formula I was investigated in a comparison with known aminobenzophenones.
Compounds were dissolved in DMSO at 100 mM. The solutions were diluted 1:10 in the test vehicle (Ethanol:Labrasol:water 65:25:10) just prior to the experiment. 10 ul aliquots were placed in droplets on filter paper and allowed to dry for 15 minutes into spots. Then the colour of the spots was scored using the following scale:
The spots were illuminated in a sun-test cabinet (Heraeus Suntest CPS) set for outdoor illumination for 5 minutes. The scoring was repeated after illumination.

| Compound | IC50 (TNF-α) | IC50 (IL-1β) | Reduction in number of comedones (comedones) | Colour score prior to illumination [1] | Colour score after illumination [1] |
| --- | --- | --- | --- | --- | --- |
| CCCC(=O)OC(C)OC(=O)N(c1ccc(C(=O)c2ccccc2C)c(Cl)c1)c1ccc(F)cc1C (stereo not shown) [Compound 112, Butyric acid 1-[[3-chloro-4-(2-methyl-benzoyl)-phenyl]-(4-fluoro-2-methyl-phenyl)-carbamoyloxy]-ethyl ester] | 12 nM | 25 nM | −56% | 0 | 0 |
| CCCC(=O)OCOC(=O)N(c1ccc(C(=O)c2ccccc2C)c(Cl)c1)c1ccc(F)cc1C [Compound 113, Butyric acid [[3-chloro-4-(2-methyl-benzoyl)-phenyl]-(4-fluoro-2-methyl-phenyl)-carbamoyloxy]-methyl ester] | 10 nM | 50 nM | −72% | 0 | 0 |
| COCC(=O)OC(C)OC(=O)N(c1ccc(C(=O)c2ccccc2C)c(Cl)c1)c1ccc(F)cc1C (stereo not shown) [Compound 119, Methoxy-acetic acid 1-[[3-chloro-4-(2-methyl-benzoyl)-phenyl]-(4-fluoro-2-methyl-phenyl)-carbamoyloxy]-ethyl ester] |  |  |  | 0 | 0 |
| Cc1ccccc1C(=O)c1ccc(N(C(=O)OC(C)OC(=O)C(C)(C)O)c2ccc(F)cc2C)cc1Cl (stereo not shown) [Compound 128, 2-Hydroxy-2-methyl-propionic acid 1-[[3-chloro-4-(2-methyl-benzoyl)-phenyl]-(4-fluoro-2-methyl-phenyl)-carbamoyloxy]-ethyl ester] | 7.9 nM | 10 nM |  |  |  |
| Cc1ccccc1C(=O)c1ccc(N(C(=O)OC(C)OC(=O)CC(C)C)c2ccc(F)cc2C)cc1Cl (stereo not shown) [Compound 133, 3-Methyl-butyric acid 1-[[3-chloro-4-(2-methyl-benzoyl)-phenyl]-(4-fluoro-2-methyl-phenyl)-carbamoyloxy]-ethyl ester] | 20 nM | 79 nM | −61% | 0 | 0 |
| C/C=C/C(=O)OC(C)OC(=O)N(c1ccc(C(=O)c2ccccc2C)c(Cl)c1)c1ccc(F)cc1C (stereo not shown) [Compound 137, (E)-But-2-enoic acid 1-[[3-chloro-4-(2-methyl-benzoyl)-phenyl]-(4-fluoro-2-methyl-phenyl)-carbamoyloxy]-ethyl ester] | 5 nM | 7.9 nM |  |  |  |
| Cc1ccccc1C(=O)c1ccc(N(C(=O)OC(C)OC(=O)c2cccnc2)c2ccc(F)cc2C)cc1Cl (stereo not shown) [Compound 147, Nicotinic acid 1-[[3-chloro-4-(2-methyl-benzoyl)-phenyl]-(4-fluoro-2-methyl-phenyl)-carbamoyloxy]-ethyl ester] |  |  |  | 0 | 0 |
| Cc1cc(F)ccc1Nc1ccc(C(=O)c2ccccc2C)c(Cl)c1 [Reference a, 2-chloro-4-(4-fluoro-2-methyl-phenylamino)-2′-methylbenzophenone, reference compound] | 7.9 nM | 32 nM |  | 0 | 3 |
| Cc1ccccc1C(=O)c1ccc(Nc2ccc(Br)cc2N)cc1Cl [Reference b, 4-(2-amino-4-bromo-phenylamino)-2-chloro-2′-methylbenzophenone, reference compound] |  |  |  | 1 | 3 |
| CNc1ccccc1C(=O)c1ccc(Nc2ccccc2N)cc1Cl [Reference c, 4-(2-aminophenylamino)-2-chloro-2′-methylaminobenzophenon, reference compound] |  |  |  | 1 | 3 |
